For data set [1], the system named is MCF7. Put plainly: Antitumor activity against human MCF7 cells xenografted in BALB/C-nu/nu mouse model assessed as decrease in tumor growth at 20 to 30 mg/kg, iv administered every other day for 15 days. In kind it is functional, organism-based. The settings on record: dose 20-30 mg/kg, time 15.0 day. (In general: In xenograft studies the graft and the host belong to different species.)

The subject of data set [2] is MCF7. Put plainly: Induction of cell cycle arrest in human MCF7 cells assessed as decrease in S phase cells at 5 uM incubated for 24 hrs by PI staining based flow cytometric analysis. The class given is functional. (In general: Flow cytometry measures light scatter and fluorescence of single cells or particles in a stream.)
Data set [3] concerns MDA-MB-231. As to the kind of experiment: Inhibition of cell migration in human MDA-MB-231 cells assessed as reduction in wound healing index measured after 72 hrs by scratch assay. In kind it is functional, cell-based.
Data set [4] has as its system MCF7. Put plainly: Induction of apoptosis in human MCF7 cells assessed as late apoptotic cells at 2.5 uM incubated for 48 hrs by Annexin V-FITC/PI staining based flow cytometric analysis (reference value: 5.31 %). In kind it is functional.
Data set [5] has as its system MCF7. Put plainly: Induction of apoptosis in human MCF7 cells assessed as viable cells at 1.25 uM incubated for 48 hrs by Annexin V-FITC/PI staining based flow cytometric analysis (reference value: 87.2 %). The class given is functional. Particulars: read-out: Activity.
Data set [6] relates to MCF7. As to the kind of experiment: Induction of cell cycle arrest in human MCF7 cells assessed as decrease in G0/G1 phase cells at 5 uM incubated for 24 hrs by PI staining based flow cytometric analysis. The class given is functional.
Data set [7] concerns MCF7. Put plainly: Induction of apoptosis in human MCF7 cells assessed as viable cells at 2.5 uM incubated for 48 hrs by Annexin V-FITC/PI staining based flow cytometric analysis (reference value: 87.2 %). The class given is functional. Particulars: read-out: Activity.
Data set [8] deals with 4T1. As to the kind of experiment: Antiproliferative activity against mouse 4T1 cells assessed as reduction in cell viability incubated for 2 days by MTT assay. In kind it is functional, cell-based. The settings on record: 4T1, 48 h. (Formazan colour is commonly taken as a measure of viable cells.)
Data set [9] concerns the target T1, Far upstream element-binding protein 2 (Homo sapiens) (UniProt Q92945).
T1 sequence (whole entry): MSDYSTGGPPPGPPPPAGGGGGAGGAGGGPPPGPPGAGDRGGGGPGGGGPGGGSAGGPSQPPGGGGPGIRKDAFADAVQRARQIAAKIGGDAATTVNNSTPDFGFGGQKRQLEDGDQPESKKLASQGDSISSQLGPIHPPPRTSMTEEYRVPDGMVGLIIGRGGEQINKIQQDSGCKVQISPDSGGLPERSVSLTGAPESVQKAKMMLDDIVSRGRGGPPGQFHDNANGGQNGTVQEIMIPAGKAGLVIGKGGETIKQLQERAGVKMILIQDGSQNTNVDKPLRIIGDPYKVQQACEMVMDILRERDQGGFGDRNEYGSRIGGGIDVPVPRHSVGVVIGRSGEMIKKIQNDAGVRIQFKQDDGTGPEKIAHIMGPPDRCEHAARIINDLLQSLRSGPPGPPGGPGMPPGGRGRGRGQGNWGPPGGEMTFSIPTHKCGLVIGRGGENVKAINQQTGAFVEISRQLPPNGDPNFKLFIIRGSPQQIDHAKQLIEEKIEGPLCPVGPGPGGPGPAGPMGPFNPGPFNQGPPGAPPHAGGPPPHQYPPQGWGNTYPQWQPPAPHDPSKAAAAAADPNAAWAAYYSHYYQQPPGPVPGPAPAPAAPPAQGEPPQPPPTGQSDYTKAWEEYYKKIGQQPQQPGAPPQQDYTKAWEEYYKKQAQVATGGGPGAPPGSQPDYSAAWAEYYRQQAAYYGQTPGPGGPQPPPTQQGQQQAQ
Put plainly: Binding affinity to recombinant full-length KSRP (unknown origin) by SPR analysis.

The test system of data set [10] is MCF7. Put plainly: Antitumor activity against human MCF7 cells xenografted in BALB/C-nu/nu mouse model assessed as increase in gamma-H2AX expression at 20 to 30 mg/kg, iv administered every other day for 15 days by immunohistochemical analysis. The class given is functional, organism-based. Particulars: dose 20-30 mg/kg, time 15.0 day.
Data set [11] relates to MIA PaCa-2. Put plainly: Antiproliferative activity against human MIA PaCa-2 cells assessed as reduction in cell viability incubated for 2 days by MTT assay. The settings on record: MIA PaCa-2, 48 h. In kind it is functional, cell-based.
A short description of data set [12]: Acute toxicity in BALB/c nu/nu mouse assessed as survival rate at 100 mg/kg, ip administered for 7 days relative to control. In kind it is organism-based. Particulars: in vivo, time 7 day.
Data set [13] deals with U-87 MG. Put plainly: Antiproliferative activity against human U-87 MG cells assessed as reduction in cell viability incubated for 2 days by MTT assay. Particulars: 48 h. The class given is functional, cell-based, U-87MG ATCC.
The subject of data set [14] is MCF7. Put plainly: Induction of DNA double-strand breaks in human MCF7 cells assessed as increase in gamma-H2AX expression incubated for 24 hrs by Western blotting. The class given is functional, cell-based.
The subject of data set [15] is MCF7. Put plainly: Induction of DNA double-strand breaks in human MCF7 cells assessed as increase in gamma-H2AX foci formation at 10 uM incubated for 24 hrs by […] fluorescence microscopic analysis. The class given is functional, cell-based.
Data set [16] relates to MCF7. As to the kind of experiment: Antitumor activity against human MCF7 cells xenografted in BALB/C-nu/nu mouse model assessed as decrease in tumor weight at 20 mg/kg, iv administered every other day for 15 days relative to control. The class given is functional. Details: scale not given: the % may be the effect or the level left. The settings on record: time 15 day.
The subject of data set [17] is MCF7. Put plainly: Induction of apoptosis in human MCF7 cells assessed as late apoptotic cells at 0.62 uM incubated for 48 hrs by Annexin V-FITC/PI staining based flow cytometric analysis (reference value: 5.31 %). In kind it is functional.
For data set [18], the system named is MCF7. Put plainly: Induction of apoptosis in human MCF7 cells assessed as necrotic cells at 0.62 uM incubated for 48 hrs by Annexin V-FITC/PI staining based flow cytometric analysis (reference value: 1.16 %). In kind it is functional.
The test system of data set [19] is MCF7. Put plainly: Induction of DNA double-strand breaks in human MCF7 cells assessed as appearance of nuclear fragments at 10 uM incubated for 24 hrs by Hoechst 33342 staining based fluorescence microscopic analysis. In kind it is functional, cell-based.
The test system of data set [20] is MCF7. Put plainly: Induction of cell cycle arrest in human MCF7 cells assessed as accumulation of cells at G2/M phase cells at 5 uM incubated for 24 hrs by PI staining based flow cytometric analysis (reference value: 10.2 %). In kind it is functional.
Data set [21] relates to MCF7. Put plainly: Induction of DNA double-strand breaks in human MCF7 cells assessed as enlarged nucleus at 10 uM incubated for 24 hrs by Hoechst 33342 staining based fluorescence microscopic analysis. The class given is functional, cell-based.
The subject of data set [22] is A549. Put plainly: Antiproliferative activity against human A549 cells assessed as reduction in cell viability incubated for 2 days by MTT assay. The class given is functional, cell-based. Particulars: A549, 48 h.
Data set [23] has as its system MDA-MB-231. As to the kind of experiment: Inhibition of colony formation in human MDA-MB-231 cells assessed as reduction in colony count incubated for 2 weeks by crystal violet staining based analysis. In kind it is functional, cell-based.

Calls of active or inactive are those of the source. The calls are words filed in the database; no cut-off is given here.

As to `CN(CCO)S(=O)(=O)c1ccc(-n2ncc(Cl)c(Cl)c2=O)cc1`, the outcome in data set [1], in data set [2], in data set [6], in [10], in [15] and in data set [19] was Active. For the same compound, the result in data set [21] was Active. In addition, the inhibition entry in [3] and in data set [23] was “Active” throughout. Besides, the Activity was 31% in data set [4]; “Dose-Dependent Effect” in data set [9]; “Dose-Dependent Effect” in data set [14]; 44.6% in data set [16]; 6.63% in [17]; 1.3% in [18]. Moreover, in [20], the Activity came to 19.9%. For the same compound, the viability at 1.25 µM in [5] was 75.1%. In addition, the viability at 2.5 µM in data set [7] is 39.5%. Further, the IC50 in [8] was 1.23 µM; in data set [11], 0.36 µM; in data set [13], 0.4 µM; in data set [22] it was 2.05 µM. Besides, in [12], the survival at 168 h came out at 80%.

One may read the IC50 as the point on the concentration scale where inhibition reaches its midpoint.

The record behind these values is ChEMBL document CHEMBL6127035, “Novel pyridazinone derivatives bind to KSRP: Synthesis, anti-tumor biological evaluations and modelling insights” (Eur J Med Chem, 2024).
